Source: patent publication US20030040012A1, “Method of detecting protein-protein interaction” (priority 2000, published 2003)

Experiments:
Format in all cases: cell-based
[1] = test system: Npw38; assay: Npw38-NpwBP binding detection by intracellular localization of GFP fluorescence in COS7 cells; settings: co-introduced with Npw38 expression vector, fluorescence microscopy
Description: (§1) Monkey kidney-derived, cultured cell COS7 was incubated in a 10% fetal calf serum-containing Dulbecco's modified Eagle's medium (DMEM) in the presence of 5% CO2 at 37° C. COS7 cells of 1=10^5 were placed in a 6-well plate (from Nunk, having a well diameter of 3 cm), and further incubated therein in the presence of 5% CO2 at 37° C. for 22 hours. After the medium was removed, the cell sur were washed with a phosphate buffer solution (PBS), and then further washed with a 50 mM Tris-HCl (pH 7.5)-containing DMEM. To these cells, added was a suspension comprising 1 μl of a plasmid suspension, 0.6 ml of DMEM and 3 μl of TRANSFECTAM™ (from IBF), and incubated in the presence of 5% CO2 at 37° C. for 12 hours. Then, the cells were washed with PBS, and fixed with 4% peraformaldehyde-containing PBS at room temperature for 10 minutes. The thus-fixed cells were washed with PBS, then treated with 0.2% Triton X-100, and thereafter blocked with 5% milk PBS. This was reacted with an anti-HA antibody for 45 minutes, then washed with PBS, and reacted with a rhodamine-binding secondary antibody for 45 minutes.
Fusion protein HA-Npw38 (A. Komuro et al., J. Biol. Chem., 274: 36513-36519, 1999) was used. This is a fusion protein A-X in which X is Npw38 and A is HA tag. […] Also used were fusion proteins NpwBP(P1)-GFP and NpwBP(P2)-GFP. These are fusion proteins Y-B in which Y is a proline-rich region of NpwBP and B is GFP. In these, P1 contains amino acid residues of from 190th valine to 210th glutamine in SEQ ID NO: 2; and P2 contains amino acid residues of from 401st glutamine to 541st isoleucine in Seq ID NO: 2.
First, pKA1-NpwBP(P1)-GFP or pKA1-NpwBP(P2)-GFP was singly introduced into COS7 cells, and the localization of these fusion proteins in the cells was checked through fluorescence microscopy based on the green fluorescence of GFP as the index thereof. […] In this stage, the cells were immunostained with an antibody against the tag to check the localization of the fusion protein HA-Npw38. This verified the localization of the fusion protein in the nucleus of each cell (FIG. 3c).

[2] = target: T1, NpwBP(P2)-Bcl-XL (Homo sapiens, UniProt Q07817+Q9Y2W2); assay: Application of mitochondrial localization signal: co-expression with NpwBP(P2)-Bcl-XL in COS7 cells; settings: mitochondrial region detected with anti-human mitochondrial antibody
T1 construct: expressed in transfected cells; host or cells: COS7 (monkey kidney)
T1 sequence (Q9Y2W2+Q07817 fused): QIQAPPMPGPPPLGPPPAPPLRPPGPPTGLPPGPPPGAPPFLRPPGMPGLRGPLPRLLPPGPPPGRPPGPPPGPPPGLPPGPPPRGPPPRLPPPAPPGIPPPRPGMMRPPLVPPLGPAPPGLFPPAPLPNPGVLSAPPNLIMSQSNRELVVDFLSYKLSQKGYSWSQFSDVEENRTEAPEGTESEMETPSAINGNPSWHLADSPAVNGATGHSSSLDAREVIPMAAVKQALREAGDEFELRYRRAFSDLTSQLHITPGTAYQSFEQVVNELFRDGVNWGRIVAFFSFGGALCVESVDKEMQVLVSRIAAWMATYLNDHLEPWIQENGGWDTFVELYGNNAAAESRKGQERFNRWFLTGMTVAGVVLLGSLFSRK
Description: as §1, with “45 minutes. […]” for “45 minutes.”
However, when the fusion protein NpwBP(P2)Bcl-XL was co-expressed therein, the mitochondrial region of each cell also gave the fluorescence (FIG. 4). The mitochondrial region in each cell was detected through immunostaining with an anti-human mitochondrial antibody (Leinco Technologies, Inc.). […]

[3] = target: T2, NpwBP (Homo sapiens, UniProt Q9Y2W2); assay: Contrary system: NpwBP co-expressed with Npw38(ΔC)-GFP in COS7 cells, GFP localization
T2 construct: expressed in transfected cells; host or cells: COS7 (monkey kidney)
T2 sequence (Q9Y2W2 1-641): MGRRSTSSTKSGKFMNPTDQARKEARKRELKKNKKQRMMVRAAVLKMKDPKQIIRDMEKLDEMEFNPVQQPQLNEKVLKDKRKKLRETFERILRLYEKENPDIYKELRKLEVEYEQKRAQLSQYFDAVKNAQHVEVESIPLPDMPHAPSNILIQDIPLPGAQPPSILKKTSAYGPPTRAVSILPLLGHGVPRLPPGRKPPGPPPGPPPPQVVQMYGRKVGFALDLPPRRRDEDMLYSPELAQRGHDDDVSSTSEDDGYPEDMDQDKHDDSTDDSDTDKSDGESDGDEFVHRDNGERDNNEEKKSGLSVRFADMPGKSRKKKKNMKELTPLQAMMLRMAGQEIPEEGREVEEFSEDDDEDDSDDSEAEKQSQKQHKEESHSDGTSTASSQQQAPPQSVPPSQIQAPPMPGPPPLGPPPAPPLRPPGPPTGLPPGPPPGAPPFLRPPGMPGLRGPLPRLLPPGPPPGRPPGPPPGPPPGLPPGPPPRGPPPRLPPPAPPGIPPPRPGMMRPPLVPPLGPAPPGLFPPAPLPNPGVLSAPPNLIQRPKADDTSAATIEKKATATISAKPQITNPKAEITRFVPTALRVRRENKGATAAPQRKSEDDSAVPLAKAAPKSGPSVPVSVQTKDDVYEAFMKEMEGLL
Description: as §1
Systems contrary to those in the above (3) were tried.

| Substance | localization of the green fluorescence on co-expression with Npw38 [1] | localization of the fluorescence on co-expression with NpwBP(P2)-Bcl-XL [2] | localization of the green fluorescence on co-expression with NpwBP [3] |
| --- | --- | --- | --- |
| NpwBP(P2)-GFP: fusion protein of proline-rich region P2 of NpwBP (residues 401-541 of SEQ ID NO: 2) and GFP | localized in the nucleus |  |  |
| NpwBP(P1)-GFP: fusion protein of proline-rich region P1 of NpwBP (residues 190-210 of SEQ ID NO: 2) and GFP | localized in the nucleus |  |  |
| Npw38(ΔC)-GFP: fusion protein in which the nuclear localization signal in Npw38 was deleted, fused to GFP |  | localized also in the mitochondrial region | move in the nucleus |
| GFP: green fluorescent protein, expressed in place of NpwBP-GFP as control [reference compound] | no intranuclear localization |  |  |
